Assay results taken from article PMC8396878, “Ether Oxidation by an Evolved Fungal Heme-Peroxygenase: Insights into Substrate Recognition and Reactivity” (Journal of Fungi, 2021).

Experiments:
Type in all cases: biochemical
[1] = molecular target: T1, unspecific peroxygenase (UPO) PaDa-I (Cyclocybe aegerita, UniProt B9W4V6, F354L/I291V/L110F/V100A/V118I); test: inhibition of catalase activity (O2 production, Clark electrode); substrate consumption by HPLC
T1 construct: gene APO1; laboratory-evolved variant PaDa-I, heterologously expressed and purified
T1 sequence (B9W4V6 44-371 V100A/L110F/V118I/I291V/F354L): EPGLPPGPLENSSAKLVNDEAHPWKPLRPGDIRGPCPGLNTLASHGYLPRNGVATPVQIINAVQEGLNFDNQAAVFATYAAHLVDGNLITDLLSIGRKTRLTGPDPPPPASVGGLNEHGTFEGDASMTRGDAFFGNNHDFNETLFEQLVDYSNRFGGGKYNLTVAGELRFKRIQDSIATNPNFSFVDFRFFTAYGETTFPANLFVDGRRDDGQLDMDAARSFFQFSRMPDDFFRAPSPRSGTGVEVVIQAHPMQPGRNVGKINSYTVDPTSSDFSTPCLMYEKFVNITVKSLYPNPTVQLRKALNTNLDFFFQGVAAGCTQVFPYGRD

[2] = molecular target: T2, unspecific peroxygenase (UPO) PaDa-I (Cyclocybe aegerita, UniProt B9W4V6, V100A/L110F/V118I/I291V/F354L); test: colorimetric peroxygenation assay (4-nitrocatechol production), Michaelis-Menten plot
T2 construct: gene APO1; laboratory-evolved variant PaDa-I, heterologously expressed and purified
T2 sequence (B9W4V6 44-371 V100A/L110F/V118I/I291V/F354L): T1 sequence (B9W4V6 44-371 V100A/L110F/V118I/I291V/F354L)

[3] = molecular target: T1, unspecific peroxygenase (UPO) PaDa-I; test: inhibition of NBD peroxygenation (Michaelis-Menten kinetics); also uncompetitive inhibition of ABTS peroxidation
[4] = molecular target: T2, unspecific peroxygenase (UPO) PaDa-I; test: H2O2-dependent ether oxidation, total turnover number by HPLC

OCCOCc1ccccc1 [2-(benzyloxy)ethanol]
Ki [1]: 390 µM

O=[N+]([O-])c1ccc2c(c1)OCO2 [NBD, 5-nitro-1,3-benzodioxole]
colorimetric peroxygenation assay (4-nitrocatechol production), Michaelis-Menten [2]: Michaelis–Menten plots for (A) NBD peroxygenation and (B) ABTS peroxidation in the presence of benzyloxyacetate

O=C(O)COCc1ccccc1 [benzyloxyacetate]
Ki [3]: 3.45 mM

c1ccc(COCc2ccccc2)cc1 [dibenzylether]
H2O2-dependent ether oxidation, total turnover number by HPLC [4]: the more hydrophobic substrate (dibenzylether) was the most efficiently converted
